Test results as given in ChEMBL document CHEMBL3751764, “Synthesis and in vitro antiproliferative activity of novel pyrazolo[3,4-d]pyrimidine derivatives” (Medchemcomm, 2015).

Key:
K562 = assay: Cytotoxicity against human K562 cells assessed as cell growth at 10 uM after 72 hrs by SRB assay relative to control; assay type: functional; conditions: K562, 72 h, read-out: Activity
[1] = Cytotoxicity against human SKOV3 cells assessed as cell growth at 10 uM after 72 hrs by SRB assay relative to control; assay type: functional; conditions: SK-OV-3, 72 h, read-out: Activity
[2] = Cytotoxicity against human OVCAR8 cells assessed as cell growth at 10 uM after 72 hrs by SRB assay relative to control; assay type: functional; conditions: OVCAR-8, 72 h, read-out: Activity
Malme-3M = assay: Cytotoxicity against human MALME-3M cells assessed as cell growth at 10 uM after 72 hrs by SRB assay relative to control; assay type: functional; conditions: read-out: Activity
[3] = Cytotoxicity against human UACC257 cells assessed as cell growth at 10 uM after 72 hrs by SRB assay relative to control; assay type: functional; conditions: UACC-257, 72 h, read-out: Activity
[4] = Cytotoxicity against human COLO205 cells assessed as cell growth at 10 uM after 72 hrs by SRB assay relative to control; assay type: functional; conditions: COLO 205, 72 h, read-out: Activity
786-0 = assay: Cytotoxicity against human 786-0 cells assessed as cell growth at 10 uM after 72 hrs by SRB assay relative to control; assay type: functional; conditions: 786-0, 72 h, read-out: Activity
[5] = Cytotoxicity against human UO31 cells assessed as cell growth at 10 uM after 72 hrs by SRB assay relative to control; assay type: functional; conditions: UO-31, 72 h, read-out: Activity
NCI-H23 = assay: Cytotoxicity against human NCI-H23 cells assessed as cell growth at 10 uM after 72 hrs by SRB assay relative to control; assay type: functional; conditions: NCI-H23, 72 h, read-out: Activity
[6] = Cytotoxicity against human DU145 cells assessed as cell growth at 10 uM after 72 hrs by SRB assay relative to control; assay type: functional; conditions: DU-145, 72 h, read-out: Activity
[7] = biological target: Vascular endothelial growth factor receptor 2 (Homo sapiens, UniProt P35968); assay: Inhibition of human VEGFR2 at 10 uM after 20 to 40 mins by liquid scintillation counting analysis in presence of […]; set-up: scale not given: the % may be the effect or the level left
Sequence of Vascular endothelial growth factor receptor 2 (P35968 whole entry): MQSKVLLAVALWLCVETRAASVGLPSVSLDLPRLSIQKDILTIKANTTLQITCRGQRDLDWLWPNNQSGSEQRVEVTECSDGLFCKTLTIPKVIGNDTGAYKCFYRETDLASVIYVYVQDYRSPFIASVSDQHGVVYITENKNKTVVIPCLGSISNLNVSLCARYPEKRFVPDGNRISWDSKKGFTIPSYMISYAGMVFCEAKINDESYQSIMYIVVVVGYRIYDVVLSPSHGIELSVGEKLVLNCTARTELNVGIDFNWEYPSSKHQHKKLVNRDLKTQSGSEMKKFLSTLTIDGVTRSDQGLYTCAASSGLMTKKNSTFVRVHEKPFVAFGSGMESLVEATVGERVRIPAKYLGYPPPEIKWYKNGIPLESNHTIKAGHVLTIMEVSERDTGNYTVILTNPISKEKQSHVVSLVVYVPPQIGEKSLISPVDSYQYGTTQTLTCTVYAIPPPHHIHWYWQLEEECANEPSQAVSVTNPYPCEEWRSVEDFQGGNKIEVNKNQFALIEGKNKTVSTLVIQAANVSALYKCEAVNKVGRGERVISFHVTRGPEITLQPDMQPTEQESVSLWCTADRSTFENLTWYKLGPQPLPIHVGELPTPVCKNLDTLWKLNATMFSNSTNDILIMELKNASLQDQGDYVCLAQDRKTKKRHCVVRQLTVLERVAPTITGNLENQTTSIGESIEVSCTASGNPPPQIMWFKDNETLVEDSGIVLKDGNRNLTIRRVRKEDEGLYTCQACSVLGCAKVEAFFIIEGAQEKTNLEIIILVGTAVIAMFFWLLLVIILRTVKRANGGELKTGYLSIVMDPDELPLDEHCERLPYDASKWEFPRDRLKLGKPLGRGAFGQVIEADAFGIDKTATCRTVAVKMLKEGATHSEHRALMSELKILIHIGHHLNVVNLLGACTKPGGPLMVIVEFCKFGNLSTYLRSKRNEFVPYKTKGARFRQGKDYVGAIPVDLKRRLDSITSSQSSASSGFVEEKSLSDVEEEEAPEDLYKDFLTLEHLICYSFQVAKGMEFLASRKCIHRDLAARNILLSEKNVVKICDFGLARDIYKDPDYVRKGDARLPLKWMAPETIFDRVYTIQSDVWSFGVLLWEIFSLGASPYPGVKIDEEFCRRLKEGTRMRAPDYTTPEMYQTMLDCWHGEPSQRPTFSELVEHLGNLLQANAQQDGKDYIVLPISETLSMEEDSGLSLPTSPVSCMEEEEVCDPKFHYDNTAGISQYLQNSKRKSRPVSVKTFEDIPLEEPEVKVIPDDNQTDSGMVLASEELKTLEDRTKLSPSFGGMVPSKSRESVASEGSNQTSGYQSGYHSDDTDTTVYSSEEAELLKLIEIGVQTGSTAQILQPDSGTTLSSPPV

NCI-H460 = assay: Cytotoxicity against human NCI-H460 cells assessed as cell growth at 10 uM after 72 hrs by SRB assay relative to control; assay type: functional; conditions: NCI-H460, 72 h, read-out: Activity
MDA-MB-468 = assay: Cytotoxicity against human MDA-MB-468 cells assessed as cell growth at 10 uM after 72 hrs by SRB assay relative to control; assay type: functional; conditions: MDA-MB-468, 72 h, read-out: Activity
[8] = Cytotoxicity against human MOLT4 cells assessed as cell growth at 10 uM after 72 hrs by SRB assay relative to control; assay type: functional; conditions: MOLT-4, 72 h, read-out: Activity
T47D = assay: Cytotoxicity against human T47D cells assessed as cell growth at 10 uM after 72 hrs by SRB assay relative to control; assay type: functional; conditions: read-out: Activity
HT-29 = assay: Cytotoxicity against human HT-29 cells assessed as cell growth at 10 uM after 72 hrs by SRB assay relative to control; assay type: functional; conditions: HT-29, 72 h, read-out: Activity
CCRF-CEM = assay: Cytotoxicity against human CCRF-CEM cells assessed as cell growth at 10 uM after 72 hrs by SRB assay relative to control; assay type: functional; conditions: read-out: Activity
MCF7 = assay: Cytotoxicity against human MCF7 cells assessed as cell growth at 10 uM after 72 hrs by SRB assay relative to control; assay type: functional; conditions: MCF7, 72 h, read-out: Activity
A498 = assay: Cytotoxicity against human A498 cells assessed as cell growth at 10 uM after 72 hrs by SRB assay relative to control; assay type: functional; conditions: A498, 72 h, read-out: Activity
[9] = Cytotoxicity against human NCI-ADR-RES cells assessed as cell growth at 10 uM after 72 hrs by SRB assay relative to control; assay type: functional; conditions: read-out: Activity
SR = assay: Cytotoxicity against human SR cells assessed as cell growth at 10 uM after 72 hrs by SRB assay relative to control; assay type: functional; conditions: read-out: Activity
[10] = Cytotoxicity against human RPMI8226 cells assessed as cell growth at 10 uM after 72 hrs by SRB assay relative to control; assay type: functional; conditions: RPMI-8226, 72 h, read-out: Activity
[11] = Cytotoxicity against human OVCAR5 cells assessed as cell growth at 10 uM after 72 hrs by SRB assay relative to control; assay type: functional; conditions: OVCAR-5, 72 h, read-out: Activity
[12] = Cytotoxicity against human SF539 cells assessed as cell growth at 10 uM after 72 hrs by SRB assay relative to control; assay type: functional; conditions: SF-539, 72 h, read-out: Activity
[13] = Cytotoxicity against human RXF393 cells assessed as cell growth at 10 uM after 72 hrs by SRB assay relative to control; assay type: functional; conditions: RXF 393, 72 h, read-out: Activity
[14] = Cytotoxicity against human HOP62 cells assessed as cell growth at 10 uM after 72 hrs by SRB assay relative to control; assay type: functional; conditions: HOP-62, 72 h, read-out: Activity
M14 = assay: Cytotoxicity against human M14 cells assessed as cell growth at 10 uM after 72 hrs by SRB assay relative to control; assay type: functional; conditions: M14, 72 h, read-out: Activity
NCI-H322M = assay: Cytotoxicity against human NCI-H322M cells assessed as cell growth at 10 uM after 72 hrs by SRB assay relative to control; assay type: functional; conditions: read-out: Activity
[15] = Cytotoxicity against human HOP92 cells assessed as cell growth at 10 uM after 72 hrs by SRB assay relative to control; assay type: functional; conditions: HOP-92, 72 h, read-out: Activity
[16] = Cytotoxicity against human SF295 cells assessed as cell growth at 10 uM after 72 hrs by SRB assay relative to control; assay type: functional; conditions: SF-295, 72 h, read-out: Activity
[17] = Cytotoxicity against human SF268 cells assessed as cell growth at 10 uM after 72 hrs by SRB assay relative to control; assay type: functional; conditions: SF-268, 72 h, read-out: Activity
[18] = Cytotoxicity against human BT549 cells assessed as cell growth at 10 uM after 72 hrs by SRB assay relative to control; assay type: functional; conditions: BT-549, 72 h, read-out: Activity
[19] = Cytotoxicity against human Caki1 cells assessed as cell growth at 10 uM after 72 hrs by SRB assay relative to control; assay type: functional; conditions: CAKI-1, 72 h, read-out: Activity
[20] = Cytotoxicity against human PC3 cells assessed as cell growth at 10 uM after 72 hrs by SRB assay relative to control; assay type: functional; conditions: PC-3, 72 h, read-out: Activity
SK-MEL-5 = assay: Cytotoxicity against human SK-MEL-5 cells assessed as cell growth at 10 uM after 72 hrs by SRB assay relative to control; assay type: functional; conditions: SK-MEL-5, 72 h, read-out: Activity
SN12C = assay: Cytotoxicity against human SN12C cells assessed as cell growth at 10 uM after 72 hrs by SRB assay relative to control; assay type: functional; conditions: read-out: Activity
SK-MEL-2 = assay: Cytotoxicity against human SK-MEL-2 cells assessed as cell growth at 10 uM after 72 hrs by SRB assay relative to control; assay type: functional; conditions: SK-MEL-2, 72 h, read-out: Activity

Row | Structure (SMILES) | growth at 10 µM (K562) [%] | growth at 10 µM [1] [%] | growth at 10 µM [2] [%] | growth at 10 µM (Malme-3M) [%] | growth at 10 µM [3] [%] | growth at 10 µM [4] [%] | growth at 10 µM (786-0) [%] | growth at 10 µM [5] [%] | growth at 10 µM (NCI-H23) [%] | growth at 10 µM [6] [%] | Activity [7] [%] | growth at 10 µM (NCI-H460) [%] | growth at 10 µM (MDA-MB-468) [%] | growth at 10 µM [8] [%] | growth at 10 µM (T47D) [%] | growth at 10 µM (HT-29) [%] | growth at 10 µM (CCRF-CEM) [%] | growth at 10 µM (MCF7) [%] | growth at 10 µM (A498) [%] | growth at 10 µM [9] [%] | further results
1 | Clc1ccc(-n2ncc3c(Nc4ccc(OCc5ccccc5)cc4)ncnc32)cc1 | 87.3 | 99.7 | 98 | 85.1 | 102 | 91.2 | 103 | 83.6 | 92.7 | 100 | 0 | 93.1 | 91.5 | 89.6 | 82.5 | 84.7 | 78.9 | 95.9 | 85.2 | 94.5 | growth at 10 µM (SR): 83.3%; growth at 10 µM [10]: 86.4%; growth at 10 µM [11]: 92.8%; growth at 10 µM [12]: 92.4%; growth at 10 µM [13]: 97.8%; growth at 10 µM [14]: 81.6%; growth at 10 µM (M14): 93.6%; growth at 10 µM (NCI-H322M): 75%; growth at 10 µM [15]: 97.8%; growth at 10 µM [16]: 97.8%; growth at 10 µM [17]: 99.7%; growth at 10 µM [18]: 107%; growth at 10 µM [19]: 93.7%; growth at 10 µM [20]: 86.1%; growth at 10 µM (SK-MEL-5): 94.4%
2 | O=c1sc2cc(Nc3ncnc4c3cnn4-c3ccccc3)ccc2n1Cc1ccc(Cl)cc1 | 49.6 | 101 | 87.9 | 86.4 | 92.6 | 92.7 | 93.7 | 50.7 | 84.7 | 94.5 | -7 | 83.5 | 65.9 | 58.6 | 62.3 | 106 | 63.6 | 85.3 | 59 | 84.8 | growth at 10 µM (SN12C): 75%; growth at 10 µM (SR): 80.6%; growth at 10 µM [10]: 63.5%; growth at 10 µM [11]: 75.1%; growth at 10 µM [12]: 79.2%; growth at 10 µM [13]: 79.5%; growth at 10 µM [14]: 94%; growth at 10 µM (M14): 82.8%; growth at 10 µM (NCI-H322M): 75.7%; growth at 10 µM [15]: 64.4%; growth at 10 µM [16]: 87.2%; growth at 10 µM [17]: 85.6%; growth at 10 µM [18]: 101%; growth at 10 µM (SK-MEL-2): 88%; growth at 10 µM [19]: 71.6%; growth at 10 µM [20]: 55.6%; growth at 10 µM (SK-MEL-5): 87.2%
3 | c1ccc(COc2ccc(Nc3ncnc4c3cnn4-c3ccccc3)cc2)cc1 | 90.3 | 108 | 113 | 92.8 | 121 | 107 | 100 | 79.6 | 109 | 104 | -5 | 93.7 | 93.1 | 93.1 | 100 | 116 | 80.8 | 100 | 77.9 | 107 | growth at 10 µM (SN12C): 97.4%; growth at 10 µM (SR): 92%; growth at 10 µM [10]: 96.5%; growth at 10 µM [11]: 98.9%; growth at 10 µM [12]: 99.6%; growth at 10 µM [13]: 102%; growth at 10 µM [14]: 104%; growth at 10 µM (M14): 101%; growth at 10 µM (NCI-H322M): 84.1%; growth at 10 µM [15]: 98.8%; growth at 10 µM [16]: 107%; growth at 10 µM [17]: 108%; growth at 10 µM [18]: 106%; growth at 10 µM (SK-MEL-2): 115%; growth at 10 µM [19]: 99.1%; growth at 10 µM [20]: 88.5%; growth at 10 µM (SK-MEL-5): 94.3%
